Laboratory results from US12122761B2, “2-azaspiro[3.4]octane derivatives as M4 agonists” (NOVARTIS AG, priority 2019, dated 2024).
Values belong to the compound of their own block, whether it stands above or below them.

Columns and labels:
Type in all cases: cell-based
[1] = biological target: T1, human cloned CHRM2 receptor (M2_CHO cells) (Homo sapiens, UniProt P08172); assay: CHRM2 Ca++ Flux Assay (agonist mode, FDSS 7000EX); settings: for Emax: Percent Activity measured to EC100 of Carbachol, read-out: M2 FDSS PA; for EC50: agonist mode, geometric mean if tested more than once, read-out: M2 FDSS EC50
T1 construct: expressed in transfected cells; host or cells: CHO-K1
T1 sequence (P08172 1-466): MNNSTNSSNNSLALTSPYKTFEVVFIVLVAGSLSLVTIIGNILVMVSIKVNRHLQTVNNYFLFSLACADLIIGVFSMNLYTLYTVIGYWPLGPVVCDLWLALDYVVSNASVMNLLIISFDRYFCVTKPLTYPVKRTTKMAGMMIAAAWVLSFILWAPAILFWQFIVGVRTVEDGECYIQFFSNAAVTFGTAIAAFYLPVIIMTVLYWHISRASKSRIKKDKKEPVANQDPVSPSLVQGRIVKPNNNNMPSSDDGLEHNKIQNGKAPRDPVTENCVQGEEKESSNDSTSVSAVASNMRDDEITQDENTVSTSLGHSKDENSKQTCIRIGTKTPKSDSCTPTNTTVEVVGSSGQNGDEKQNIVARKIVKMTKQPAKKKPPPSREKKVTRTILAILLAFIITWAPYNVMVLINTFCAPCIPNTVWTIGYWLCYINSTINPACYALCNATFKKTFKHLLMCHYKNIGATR
How it was run: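 Agonist-mode Ca++ flux in CHO-K1 cells stably expressing human CHRM2, dye-loaded, then held 60 min at room temperature in buffer with 20 μM ATP before compound addition; traces read over 3 minutes. Four-parameter fit of triplicate wells; percent activity relative to Carbachol EC100.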

[2] = biological target: T2, human cloned CHRM3 receptor (M3_CHO cells) (Homo sapiens, UniProt P20309); assay: CHRM3 Ca++ Flux Assay (agonist mode, FDSS 7000EX); settings: for Emax: Percent Activity measured to EC100 of Carbachol, read-out: M3 FDSS PA; for EC50: agonist mode, geometric mean if tested more than once, read-out: M3 FDSS EC50
T2 construct: expressed in transfected cells; host or cells: CHO-K1
T2 sequence (P20309 whole entry): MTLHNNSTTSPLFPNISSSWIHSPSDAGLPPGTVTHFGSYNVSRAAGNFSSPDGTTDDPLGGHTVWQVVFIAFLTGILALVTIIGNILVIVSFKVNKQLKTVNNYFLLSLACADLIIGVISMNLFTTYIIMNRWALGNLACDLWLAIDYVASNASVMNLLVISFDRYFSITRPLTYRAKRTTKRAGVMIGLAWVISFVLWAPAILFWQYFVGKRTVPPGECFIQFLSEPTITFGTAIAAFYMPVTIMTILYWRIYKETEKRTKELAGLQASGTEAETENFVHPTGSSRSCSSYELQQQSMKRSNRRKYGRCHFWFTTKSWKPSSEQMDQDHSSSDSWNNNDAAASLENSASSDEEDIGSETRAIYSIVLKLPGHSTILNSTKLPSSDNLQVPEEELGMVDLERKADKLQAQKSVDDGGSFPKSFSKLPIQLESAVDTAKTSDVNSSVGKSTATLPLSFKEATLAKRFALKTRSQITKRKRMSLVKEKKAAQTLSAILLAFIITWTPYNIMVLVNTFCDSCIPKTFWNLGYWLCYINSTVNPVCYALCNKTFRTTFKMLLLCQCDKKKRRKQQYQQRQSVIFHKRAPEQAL
How it was run: (§1)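 Stable CHO-K1 lines (human M3 or M5), calcium-dye loaded ≥1 h, assayed in Ca/Mg-free HBSS + 20 mM HEPES + 2.5 mM probenecid. 11-pt dose response, triplicate, 3 min fluorescence read. 4-parameter regression; % activity vs carbachol EC100.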

[3] = biological target: T3, human cloned CHRM5 receptor (M5_CHO) (Homo sapiens, UniProt P08912); assay: CHRM5 Ca++ Flux Assay (agonist mode, FDSS 7000EX); settings: for Emax: Percent Activity measured to EC100 of Carbachol, read-out: M5 FDSS PA; for EC50: agonist mode, geometric mean if tested more than once, read-out: M5 FDSS EC50
T3 construct: expressed in transfected cells; host or cells: CHO (M5_CHO)
T3 sequence (P08912 1-532): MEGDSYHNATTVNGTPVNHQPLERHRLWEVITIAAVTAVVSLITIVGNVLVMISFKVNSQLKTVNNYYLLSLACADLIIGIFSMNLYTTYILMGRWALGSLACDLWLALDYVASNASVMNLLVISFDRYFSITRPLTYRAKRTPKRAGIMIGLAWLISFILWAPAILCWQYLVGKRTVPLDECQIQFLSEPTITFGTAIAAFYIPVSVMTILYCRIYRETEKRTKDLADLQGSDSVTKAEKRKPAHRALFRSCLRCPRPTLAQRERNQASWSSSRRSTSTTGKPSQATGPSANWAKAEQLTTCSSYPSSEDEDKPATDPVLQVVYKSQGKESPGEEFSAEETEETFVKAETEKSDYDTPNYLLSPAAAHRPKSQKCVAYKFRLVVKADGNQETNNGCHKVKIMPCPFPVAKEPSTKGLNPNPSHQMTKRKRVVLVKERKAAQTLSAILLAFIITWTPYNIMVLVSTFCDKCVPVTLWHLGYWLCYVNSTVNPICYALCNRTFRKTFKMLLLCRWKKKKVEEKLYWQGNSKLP
How it was run: as §1

SMILES: COc1ccccc1C1CCN([C@@H]2CCC3(C2)CN(c2nccnc2C(F)(F)F)C3)CC1 [Example 5I, (R)-6-(4-(2-methoxyphenyl)piperidin-1-yl)-2-(3-(trifluoromethyl)pyrazin-2-yl)-2-azaspiro[3.4]octane]
- Emax [1]: 49%
- EC50 [1]: 13.2 µM
- Emax [2]: 0%
- EC50 [2]: > 25 µM
- Emax [3]: 0%
- EC50 [3]: > 25 µM

SMILES: COc1ccccc1C1CCN([C@@H]2CCC3(C2)CN(c2cccnc2)C3)CC1 [Example 5K, (R)-6-(4-(2-methoxyphenyl)piperidin-1-yl)-2-(pyridin-3-yl)-2-azaspiro[3.4]octane]
- Emax [1]: 18%
- Emax [2]: 0%
- EC50 [2]: > 25 µM
- Emax [3]: 0%
- EC50 [3]: > 25 µM

SMILES: COc1ccccc1C1CCN([C@@H]2CCC3(C2)CN(c2ncnc(C)n2)C3)CC1 [Example 5M, (R)-6-(4-(2-methoxyphenyl)piperidin-1-yl)-2-(4-methyl-1,3,5-triazin-2-yl)-2-azaspiro[3.4]octane]
- Emax [1]: 0%
- Emax [2]: 0%
- EC50 [2]: > 25 µM
- Emax [3]: 0%
- EC50 [3]: > 25 µM

SMILES: COc1ccccc1C1CCN([C@@H]2CCC3(C2)CN(c2cccnn2)C3)CC1 [Example 5O, (R)-6-(4-(2-methoxyphenyl)piperidin-1-yl)-2-(pyridazin-3-yl)-2-azaspiro[3.4]octane]
- Emax [1]: 0%
- Emax [2]: 0%
- EC50 [2]: > 25 µM
- Emax [3]: 0%
- EC50 [3]: > 25 µM

SMILES: COc1ccc(Cl)cc1C1CCN([C@@H]2CCC3(C2)CN(c2ccnnc2)C3)CC1 [Example 5P, (R)-6-(4-(5-chloro-2-methoxyphenyl)piperidin-1-yl)-2-(pyridazin-4-yl)-2-azaspiro[3.4]octane]
- Emax [1]: 16%
- Emax [2]: 0%
- EC50 [2]: > 25 µM
- Emax [3]: 8%
- EC50 [3]: 13.4 µM

SMILES: COc1ccccc1C1CCN([C@@H]2CCC3(C2)CN(c2cc(Cl)nnc2Cl)C3)CC1 [Example 5R, (R)-2-(3,6-dichloropyridazin-4-yl)-6-(4-(2-methoxyphenyl)piperidin-1-yl)-2-azaspiro[3.4]octane]
- Emax [1]: 0%
- Emax [2]: 0%
- EC50 [2]: > 25 µM
- Emax [3]: 1%
- EC50 [3]: > 25 µM

Further lines, results first:

- Emax [1]: 0%
- Emax [2]: 0%
- EC50 [2]: > 25 µM
- Emax [3]: 0%
- EC50 [3]: > 25 µM
SMILES: COc1ccccc1C1CCN([C@@H]2CCC3(C2)CN(c2nccnc2C)C3)CC1 [Example 5J, (R)-6-(4-(2-methoxyphenyl)piperidin-1-yl)-2-(3-methylpyrazin-2-yl)-2-azaspiro[3.4]octane]

- Emax [1]: 36%
- EC50 [1]: 7.88 µM
- Emax [2]: 0%
- EC50 [2]: 11.7 µM
- Emax [3]: 17%
- EC50 [3]: 14.4 µM
SMILES: Cc1ccc(N2CC3(CC[C@@H](N4CCC(c5ccccc5O[C@@H]5CCOC5)CC4)C3)C2)cn1 [Example 5L, (R)-2-(6-methylpyridin-3-yl)-6-(4-(2-(((R)-tetrahydrofuran-3-yl)oxy)phenyl)piperidin-1-yl)-2-azaspiro[3.4]octane]

- Emax [1]: 35%
- Emax [2]: 9%
- EC50 [2]: 11.3 µM
- Emax [3]: 8%
- EC50 [3]: 22.9 µM
SMILES: COc1ccccc1C1CCN([C@@H]2CCC3(C2)CN(c2ccc(Cl)nn2)C3)CC1 [Example 5N, (R)-2-(6-chloropyridazin-3-yl)-6-(4-(2-methoxyphenyl)piperidin-1-yl)-2-azaspiro[3.4]octane]

- Emax [1]: 0%
- Emax [2]: 0%
- EC50 [2]: > 25 µM
- Emax [3]: 0%
- EC50 [3]: > 25 µM
SMILES: c1ccc(C2CCN([C@@H]3CCC4(C3)CN(c3ncncn3)C4)CC2)c(OCC2CCOCC2)c1 [Example 5Q, (R)-6-(4-(2-((tetrahydro-2H-pyran-4-yl)methoxy)phenyl)piperidin-1-yl)-2-(1,3,5-triazin-2-yl)-2-azaspiro[3.4]octane]

- Emax [1]: 0%
- Emax [2]: 0%
- EC50 [2]: > 25 µM
- Emax [3]: 0%
- EC50 [3]: > 25 µM
SMILES: COc1ccccc1C1CCN([C@@H]2CCC3(C2)CN(c2ccnnc2)C3)CC1 [Example 5S, (R)-6-(4-(2-methoxyphenyl)piperidin-1-yl)-2-(pyridazin-4-yl)-2-azaspiro[3.4]octane]
